# ChEMBL document CHEMBL5329199, “Discovery of novel dual Bruton's tyrosine kinase (BTK) and Janus kinase 3 (JAK3) inhibitors as a promising strategy for rheumatoid arthritis” (Bioorg Med Chem, 2023)
# pIC50: −log10 of the molar value.
# Key:
# [1] = target: T1, Tyrosine-protein kinase JAK3 (Homo sapiens, UniProt P52333); experiment: Inhibition of JAK3 (unknown origin) preincubated for 10 mins followed by kinase substrate and ATP addition and measured for 30 mins by mobility shift assay
# T1 sequence (P52333 whole entry): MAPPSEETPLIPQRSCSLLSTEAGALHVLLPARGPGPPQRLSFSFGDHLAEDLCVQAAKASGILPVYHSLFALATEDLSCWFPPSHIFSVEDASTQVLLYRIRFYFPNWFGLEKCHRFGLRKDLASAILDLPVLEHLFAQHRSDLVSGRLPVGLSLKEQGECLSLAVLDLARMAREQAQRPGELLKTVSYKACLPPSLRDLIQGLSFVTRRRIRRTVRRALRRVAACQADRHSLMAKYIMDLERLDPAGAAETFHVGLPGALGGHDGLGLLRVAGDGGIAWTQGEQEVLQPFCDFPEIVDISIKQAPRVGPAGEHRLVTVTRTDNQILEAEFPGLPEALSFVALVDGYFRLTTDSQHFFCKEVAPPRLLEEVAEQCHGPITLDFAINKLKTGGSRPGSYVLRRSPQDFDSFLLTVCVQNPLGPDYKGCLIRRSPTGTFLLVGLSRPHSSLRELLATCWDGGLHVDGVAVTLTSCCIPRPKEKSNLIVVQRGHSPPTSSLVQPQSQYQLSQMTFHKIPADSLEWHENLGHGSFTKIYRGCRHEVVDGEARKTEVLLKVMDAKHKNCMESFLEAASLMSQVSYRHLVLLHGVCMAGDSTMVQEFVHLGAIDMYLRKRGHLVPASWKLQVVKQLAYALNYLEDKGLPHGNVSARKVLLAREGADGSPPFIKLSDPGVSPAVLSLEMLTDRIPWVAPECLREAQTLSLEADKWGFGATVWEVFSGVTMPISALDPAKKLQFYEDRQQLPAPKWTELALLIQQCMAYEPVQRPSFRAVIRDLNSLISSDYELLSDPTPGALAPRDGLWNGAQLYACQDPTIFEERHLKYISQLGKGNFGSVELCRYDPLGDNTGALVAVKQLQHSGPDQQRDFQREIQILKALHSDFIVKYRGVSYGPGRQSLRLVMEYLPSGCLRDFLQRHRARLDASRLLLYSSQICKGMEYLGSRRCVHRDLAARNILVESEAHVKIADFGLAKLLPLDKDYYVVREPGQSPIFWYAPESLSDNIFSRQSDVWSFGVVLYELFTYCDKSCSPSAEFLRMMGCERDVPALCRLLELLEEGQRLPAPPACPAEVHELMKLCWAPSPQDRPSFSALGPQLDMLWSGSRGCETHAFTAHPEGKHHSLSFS
# [2] = target: Tyrosine-protein kinase BTK (Homo sapiens, UniProt Q06187); experiment: Inhibition of BTK (unknown origin) preincubated for 10 mins followed by kinase substrate and ATP addition and measured for 20 mins by mobility shift assay
# Sequence of Tyrosine-protein kinase BTK (Q06187 whole entry): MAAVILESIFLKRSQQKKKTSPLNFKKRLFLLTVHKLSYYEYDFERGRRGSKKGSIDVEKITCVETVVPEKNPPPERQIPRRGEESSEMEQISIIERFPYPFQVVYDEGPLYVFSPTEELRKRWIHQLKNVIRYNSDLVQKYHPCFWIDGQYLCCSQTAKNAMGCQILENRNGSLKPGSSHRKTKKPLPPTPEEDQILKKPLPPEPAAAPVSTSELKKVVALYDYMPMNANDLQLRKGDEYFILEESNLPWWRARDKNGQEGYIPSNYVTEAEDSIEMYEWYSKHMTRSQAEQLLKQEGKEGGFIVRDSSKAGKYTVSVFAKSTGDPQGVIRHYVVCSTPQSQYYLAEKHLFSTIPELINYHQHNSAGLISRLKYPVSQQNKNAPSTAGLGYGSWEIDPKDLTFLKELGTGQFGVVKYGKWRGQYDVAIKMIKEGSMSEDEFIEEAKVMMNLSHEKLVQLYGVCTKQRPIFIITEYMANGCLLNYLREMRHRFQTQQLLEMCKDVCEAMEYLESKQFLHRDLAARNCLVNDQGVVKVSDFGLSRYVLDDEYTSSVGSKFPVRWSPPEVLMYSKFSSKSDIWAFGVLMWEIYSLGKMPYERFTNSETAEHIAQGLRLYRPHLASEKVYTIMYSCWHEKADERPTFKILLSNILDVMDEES
# [3] = Cytotoxicity against HUVEC cells incubated for 24 hrs by MTT assay; type: toxicity, cell-based; conditions: human
# [4] = Observed MRT(infinity) in Sprague-Dawley rat at 5 mg/kg, iv measured for 720 mins by LC/MS analysis; type: ADME, organism-based; conditions: in vivo
# [5] = Cytotoxicity against HUVEC cells incubated for 12 hrs by MTT assay; type: toxicity, cell-based; conditions: human
# Daudi = experiment: Antiproliferative activity against human Daudi cells assessed as inhibition of cell growth incubated for 72 hrs by Cell Titer-Glo assay; type: functional, cell-based
# [6] = Cytotoxicity against human L02 cells incubated for 48 hrs by MTT assay; type: toxicity, cell-based
# [7] = Cytotoxicity against mouse RAW264.7 cells incubated for 48 hrs by MTT assay; type: toxicity, cell-based
# [8] = AUC(all) in Sprague-Dawley rat at 50 mg/kg, po measured for 720 mins by LC/MS analysis; type: ADME, organism-based; parameters: dose 50 mg/kg, time 720 min, route po; conditions: in vivo
# [9] = Cytotoxicity against human L02 cells incubated for 24 hrs by MTT assay; type: toxicity, cell-based
# [10] = Cytotoxicity against mouse RAW264.7 cells incubated for 24 hrs by MTT assay; type: toxicity, cell-based
# [11] = Acute toxicity in po dosed ICR mouse assessed as minimum lethal dose measured for 7 days; type: organism-based; conditions: in vivo, 168 h, time 7 day
# [12] = target: Tyrosine-protein kinase JAK2 (Homo sapiens, UniProt O60674); experiment: Inhibition of JAK2 (unknown origin) using kinetic substrate in presence of ATP by mobility shift assay
# [13] = Cytotoxicity against rat NRK cells incubated for 12 hrs by MTT assay; type: toxicity, cell-based
# [14] = Cytotoxicity against rat NRK cells incubated for 24 hrs by MTT assay; type: toxicity, cell-based
# [15] = target: Voltage-gated inwardly rectifying potassium channel KCNH2 (Homo sapiens, UniProt Q12809); experiment: Inhibition of human ERG by patch clamp assay
# Sequence of Voltage-gated inwardly rectifying potassium channel KCNH2 (Q12809 whole entry): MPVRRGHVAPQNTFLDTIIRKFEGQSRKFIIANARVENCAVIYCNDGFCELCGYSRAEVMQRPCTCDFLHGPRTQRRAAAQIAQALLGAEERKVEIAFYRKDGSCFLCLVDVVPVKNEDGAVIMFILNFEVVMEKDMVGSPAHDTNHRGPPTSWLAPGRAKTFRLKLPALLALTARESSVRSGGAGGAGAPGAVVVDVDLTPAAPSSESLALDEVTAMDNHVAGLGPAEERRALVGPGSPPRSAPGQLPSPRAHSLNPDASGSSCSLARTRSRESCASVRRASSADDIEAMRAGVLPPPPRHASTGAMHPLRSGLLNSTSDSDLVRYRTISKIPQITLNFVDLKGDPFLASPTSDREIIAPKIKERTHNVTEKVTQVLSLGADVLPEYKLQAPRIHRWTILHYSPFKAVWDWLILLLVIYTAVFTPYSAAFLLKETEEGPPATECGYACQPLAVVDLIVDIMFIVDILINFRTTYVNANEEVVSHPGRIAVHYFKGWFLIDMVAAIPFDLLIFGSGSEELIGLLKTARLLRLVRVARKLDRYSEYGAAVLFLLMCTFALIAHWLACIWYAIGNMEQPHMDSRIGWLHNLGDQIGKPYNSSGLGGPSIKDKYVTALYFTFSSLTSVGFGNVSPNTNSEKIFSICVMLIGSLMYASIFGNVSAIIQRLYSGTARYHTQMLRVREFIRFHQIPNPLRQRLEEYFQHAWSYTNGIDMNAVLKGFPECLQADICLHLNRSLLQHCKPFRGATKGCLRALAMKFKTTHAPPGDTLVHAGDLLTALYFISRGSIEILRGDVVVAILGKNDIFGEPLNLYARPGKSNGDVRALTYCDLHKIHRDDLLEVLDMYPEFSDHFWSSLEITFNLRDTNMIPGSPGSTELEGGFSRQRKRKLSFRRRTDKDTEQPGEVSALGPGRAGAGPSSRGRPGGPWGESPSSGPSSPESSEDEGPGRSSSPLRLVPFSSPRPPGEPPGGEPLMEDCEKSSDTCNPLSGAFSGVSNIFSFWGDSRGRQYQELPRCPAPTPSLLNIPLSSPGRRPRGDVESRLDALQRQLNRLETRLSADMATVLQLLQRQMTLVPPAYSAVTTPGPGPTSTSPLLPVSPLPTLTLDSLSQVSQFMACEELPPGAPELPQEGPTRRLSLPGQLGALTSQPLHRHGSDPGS
# [16] = target: Tyrosine-protein kinase JAK1 (Homo sapiens, UniProt P23458); experiment: Inhibition of JAK1 (unknown origin) using kinetic substrate in presence of ATP by mobility shift assay
# Sequence of Tyrosine-protein kinase JAK1 (P23458 whole entry): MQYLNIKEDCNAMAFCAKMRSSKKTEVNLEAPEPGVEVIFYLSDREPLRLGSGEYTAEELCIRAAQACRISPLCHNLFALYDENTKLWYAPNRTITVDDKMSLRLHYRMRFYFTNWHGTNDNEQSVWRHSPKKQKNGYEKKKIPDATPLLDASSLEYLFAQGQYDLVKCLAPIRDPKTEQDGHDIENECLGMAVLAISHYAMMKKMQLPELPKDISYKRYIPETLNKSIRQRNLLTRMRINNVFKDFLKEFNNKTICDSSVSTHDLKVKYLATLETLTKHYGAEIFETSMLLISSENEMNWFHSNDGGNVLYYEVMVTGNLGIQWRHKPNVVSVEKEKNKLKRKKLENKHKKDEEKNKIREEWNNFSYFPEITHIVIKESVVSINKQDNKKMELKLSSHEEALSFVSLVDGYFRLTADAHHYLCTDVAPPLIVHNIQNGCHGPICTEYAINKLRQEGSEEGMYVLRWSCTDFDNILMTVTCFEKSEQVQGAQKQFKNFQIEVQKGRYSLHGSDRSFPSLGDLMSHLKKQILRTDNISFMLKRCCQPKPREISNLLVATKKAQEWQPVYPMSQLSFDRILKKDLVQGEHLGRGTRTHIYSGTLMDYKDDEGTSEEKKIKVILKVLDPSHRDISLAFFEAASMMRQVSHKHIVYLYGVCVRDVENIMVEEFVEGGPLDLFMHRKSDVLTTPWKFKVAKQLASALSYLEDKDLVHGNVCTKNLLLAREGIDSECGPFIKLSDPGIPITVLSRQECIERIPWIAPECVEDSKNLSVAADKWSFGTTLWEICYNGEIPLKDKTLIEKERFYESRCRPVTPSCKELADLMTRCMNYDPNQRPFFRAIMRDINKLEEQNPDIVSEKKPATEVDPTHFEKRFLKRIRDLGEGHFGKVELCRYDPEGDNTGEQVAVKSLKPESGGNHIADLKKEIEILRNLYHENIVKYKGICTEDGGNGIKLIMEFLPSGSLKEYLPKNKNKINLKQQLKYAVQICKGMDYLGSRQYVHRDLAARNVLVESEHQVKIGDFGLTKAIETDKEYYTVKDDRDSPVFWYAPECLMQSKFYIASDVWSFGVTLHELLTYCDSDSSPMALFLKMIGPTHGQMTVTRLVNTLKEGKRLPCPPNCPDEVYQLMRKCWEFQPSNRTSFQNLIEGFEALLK
# [17] = Cytotoxicity against human L02 cells incubated for 12 hrs by MTT assay; type: toxicity, cell-based
# [18] = Tmax in Sprague-Dawley rat at 50 mg/kg, po by LC/MS analysis; type: ADME, organism-based; conditions: in vivo
# [19] = Cmax in Sprague-Dawley rat at 50 mg/kg, po measured for 720 mins by LC/MS analysis; type: ADME, organism-based; parameters: dose 50 mg/kg, time 720 min, route po; conditions: in vivo
# [20] = Cytotoxicity against rat NRK cells incubated for 48 hrs by MTT assay; type: toxicity, cell-based
# [21] = Oral bioavailability in Sprague-Dawley rat at 50 mg/kg measured for 720 mins by LC/MS analysis; type: ADME, organism-based; conditions: in vivo
# [22] = target: Non-receptor tyrosine-protein kinase TYK2 (Homo sapiens, UniProt P29597); experiment: Inhibition of TYK2 (unknown origin) using kinetic substrate in presence of ATP by mobility shift assay
# Sequence of Non-receptor tyrosine-protein kinase TYK2 (P29597 whole entry): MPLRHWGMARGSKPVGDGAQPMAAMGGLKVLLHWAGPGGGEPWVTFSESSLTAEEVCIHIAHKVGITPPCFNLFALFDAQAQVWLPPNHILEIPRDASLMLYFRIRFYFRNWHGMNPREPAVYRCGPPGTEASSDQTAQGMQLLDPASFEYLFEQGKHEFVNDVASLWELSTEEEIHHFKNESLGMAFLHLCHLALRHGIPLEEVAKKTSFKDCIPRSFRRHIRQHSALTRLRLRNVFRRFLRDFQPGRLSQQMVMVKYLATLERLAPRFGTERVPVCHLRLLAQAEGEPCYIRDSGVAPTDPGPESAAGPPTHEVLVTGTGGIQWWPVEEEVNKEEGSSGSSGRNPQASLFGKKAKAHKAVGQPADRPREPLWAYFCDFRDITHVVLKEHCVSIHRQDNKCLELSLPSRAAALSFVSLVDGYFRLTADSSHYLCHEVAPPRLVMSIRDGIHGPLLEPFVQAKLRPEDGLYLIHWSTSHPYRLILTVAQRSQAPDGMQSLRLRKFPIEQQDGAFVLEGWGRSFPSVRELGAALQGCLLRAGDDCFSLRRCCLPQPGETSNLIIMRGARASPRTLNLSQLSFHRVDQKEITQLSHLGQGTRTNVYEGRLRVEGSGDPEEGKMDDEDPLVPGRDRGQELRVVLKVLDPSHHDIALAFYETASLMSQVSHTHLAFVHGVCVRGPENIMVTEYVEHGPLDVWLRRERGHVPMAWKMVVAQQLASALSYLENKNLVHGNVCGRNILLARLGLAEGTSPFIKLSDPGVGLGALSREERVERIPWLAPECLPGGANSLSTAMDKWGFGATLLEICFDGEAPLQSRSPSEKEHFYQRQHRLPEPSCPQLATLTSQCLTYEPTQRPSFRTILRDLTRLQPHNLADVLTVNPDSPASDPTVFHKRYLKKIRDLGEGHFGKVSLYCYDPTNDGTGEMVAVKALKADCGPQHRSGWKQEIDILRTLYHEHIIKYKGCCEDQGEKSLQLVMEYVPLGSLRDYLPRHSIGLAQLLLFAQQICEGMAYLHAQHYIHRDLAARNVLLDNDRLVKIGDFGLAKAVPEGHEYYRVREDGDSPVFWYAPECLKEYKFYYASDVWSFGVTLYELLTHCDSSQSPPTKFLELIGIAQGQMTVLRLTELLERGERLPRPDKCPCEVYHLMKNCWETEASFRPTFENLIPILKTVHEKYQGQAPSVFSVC
# [23] = Cytotoxicity against HUVEC cells incubated for 48 hrs by MTT assay; type: toxicity, cell-based; conditions: human
# BaF3 = experiment: Antiproliferative activity against mouse BaF3 cells expressing JAK3 mutant assessed as inhibition of cell growth incubated for 72 hrs by Cell Titer-Glo assay; type: functional, cell-based; conditions: BaF3, 72 h
# [24] = AUC(all) in Sprague-Dawley rat at 5 mg/kg, iv measured for 720 mins by LC/MS analysis; type: ADME, organism-based; parameters: time 720 min, dose 5 mg/kg, route iv; conditions: in vivo
# [25] = Observed MRT(infinity) in Sprague-Dawley rat at 50 mg/kg, po measured for 720 mins by LC/MS analysis; type: ADME, organism-based; conditions: in vivo
# [26] = Half life in Sprague-Dawley rat at 50 mg/kg, po by LC/MS analysis; type: ADME, organism-based; conditions: in vivo
# [27] = Cytotoxicity against mouse RAW264.7 cells incubated for 12 hrs by MTT assay; type: toxicity, cell-based
compound,measurement,setting,value
C=CC(=O)N1CCC[C@@H](n2nc(-c3ccc(NC(=O)c4ccc(C(C)(C)C)cc4)c4c3OCO4)c3c(N)ncnc32)C1,pIC50,[1],7.43
same,pIC50,[2],8.57
C=CC(=O)N1CCC[C@@H](n2nc(-c3ccc(NC(=O)c4ccccc4)c4c3OCO4)c3c(N)ncnc32)C1,pIC50,[1],7.14
same,pIC50,[2],8.89
C=CC(=O)N1CCC[C@@H](n2nc(-c3ccc(NC(=O)c4cccs4)c4c3OCO4)c3c(N)ncnc32)C1,pIC50,[1],7.21
same,pIC50,[2],8.77
C=CC(=O)N1CCC[C@@H](n2nc(-c3ccc(NC(=O)c4cccc(Cl)c4)c4c3OCO4)c3c(N)ncnc32)C1,pIC50,[1],7.36
same,pIC50,[2],8.74
C=CC(=O)N1CCC[C@@H](n2nc(-c3ccc(NC(=O)c4ccccn4)c4c3OCO4)c3c(N)ncnc32)C1,pIC50,[1],7.15
same,pIC50,[2],8.85
C=CC(=O)N1CCC[C@@H](n2nc(-c3ccc(NC(=O)c4ccccc4Cl)c4c3OCO4)c3c(N)ncnc32)C1,pIC50,[1],6.97
same,pIC50,[2],8.70
C=CC(=O)N1CCC[C@@H](n2nc(-c3ccc(NC(=O)c4sc5ccccc5c4Cl)c4c3OCO4)c3c(N)ncnc32)C1,pIC50,[1],7.52
same,pIC50,[2],8.62
CCC(=O)N1CCC[C@@H](n2nc(-c3ccc(NC(=O)c4ccccc4)c4c3OCO4)c3c(N)ncnc32)C1,pIC50,[1],< 5.00
same,pIC50,[2],7.34
C=CC(=O)N1CCC[C@@H](n2nc(-c3ccc(NC(=O)c4cccc5c4CCCC5)c4c3OCO4)c3c(N)ncnc32)C1,pIC50,[1],7.46
same,pIC50,[2],8.72
N#CCC(=O)N1CCC[C@@H](n2nc(-c3ccc(NC(=O)c4ccccc4)c4c3OCO4)c3c(N)ncnc32)C1,pIC50,[1],< 5.00
same,pIC50,[2],7.22
C=CC(=O)N1CCC[C@@H]1Cn1nc(-c2ccc(NC(=O)c3ccc(N(C)C)cc3)c3c2OCO3)c2c(N)ncnc21,pIC50,[1],6.19
same,pIC50,[2],8.22
C=CC(=O)N1CCC[C@@H](n2nc(-c3ccc(NC(=O)c4ccc(N(CC)CC)cc4)c4c3OCO4)c3c(N)ncnc32)C1,pIC50,[1],7.57
same,pIC50,[2],8.66
C=CC(=O)N1CCC[C@@H](n2nc(-c3ccc(NC(=O)c4ccc(OC)cc4)c4c3OCO4)c3c(N)ncnc32)C1,pIC50,[1],7.36
same,pIC50,[2],8.82
C=CC(=O)N1CCC[C@@H](n2nc(-c3ccc(NC(=O)c4ccc(N(C)C)cc4)c4c3OCO4)c3c(N)ncnc32)C1,IC50 at 24 h,[3],40.6 µM
same,MRT inf,[4],9.36 min
same,IC50 at 12 h,[5],50 µM
same,pIC50,Daudi,6.16
same,IC50 at 48 h,[6],9.61 µM
same,IC50 at 48 h,[7],19.7 µM
same,AUC at 12 h,[8],0.437 µg·h/mL
same,IC50 at 24 h,[9],28.2 µM
same,IC50 at 24 h,[10],50.6 µM
same,MLD,[11],> 1600 mg/kg
same,pIC50,[1],7.85
same,pIC50,[12],< 5.00
same,IC50 at 12 h,[13],51 µM
same,IC50 at 24 h,[14],15.7 µM
same,pIC50,[15],4.83
same,pIC50,[16],< 5.00
same,IC50 at 12 h,[17],69.9 µM
same,Tmax,[18],0.459 h
same,Cmax,[19],0.209 µg/mL
same,IC50 at 48 h,[20],11.8 µM
same,pIC50,[2],8.70
same,bioavailability,[21],13.2%
same,pIC50,[22],< 5.00
same,IC50 at 48 h,[23],27.3 µM
same,pIC50,BaF3,6.44
same,AUC at 12 h,[24],0.299 µg·h/mL
same,MRT inf,[25],3.4 h
same,half-life,[26],2.57 h
same,IC50 at 12 h,[27],60.8 µM
C=CC(=O)N1CCC[C@@H](n2nc(-c3ccc(NC(=O)c4cccc(N(C)C)c4)c4c3OCO4)c3c(N)ncnc32)C1,pIC50,[1],7.01
same,pIC50,[2],8.99
C=CC(=O)N1CCC[C@@H](n2nc(-c3ccc(NC(=O)c4ccc(F)cc4)c4c3OCO4)c3c(N)ncnc32)C1,pIC50,[1],6.75
same,pIC50,[2],9.05
